From ChEMBL document CHEMBL2177053, “Current landscape of phosphodiesterase 10A (PDE10A) inhibition” (J Med Chem, 2012)
Blank lines part the entries; values can stand above or below the molecule they belong to.

Assays:
[1] = target: T1, cAMP and cAMP-inhibited cGMP 3',5'-cyclic phosphodiesterase 10A (Homo sapiens, UniProt Q9Y233); experiment: Inhibition of PDE10A using [3H]cAMP and [3H]cGMP as substrate after 30 mins by scintillation counting
[2] = system: Mus musculus; experiment: Antipsychotic activity in NMRI mouse assessed as inhibition of phencyclidine-induced hyperlocomotion at 5 mg/kg, sc administered 60 mins prior to phencyclidine challenge measured up to 60 mins relative to vehicle-treated control; format: functional; details: route subcutaneous
[3] = Selectivity ratio of IC50 for PDE4 to IC50 for PDE10A
[4] = target: T1, cAMP and cAMP-inhibited cGMP 3',5'-cyclic phosphodiesterase 10A; experiment: Inhibition of PDE10A
[5] = target: T1, cAMP and cAMP-inhibited cGMP 3',5'-cyclic phosphodiesterase 10A; experiment: Inhibition of PDE10A at 1 uM
[6] = target: T1, cAMP and cAMP-inhibited cGMP 3',5'-cyclic phosphodiesterase 10A; experiment: Inhibition of human PDE10A1 using [3H]cAMP as substrate after 20 mins by TopCount scintillation counting
[7] = Inhibition of mouse PDE10A7 using fluorescein labeled cAMP and cGMP as substrate after 60 mins by IMAP TR-FRET assay
[8] = target: T1, cAMP and cAMP-inhibited cGMP 3',5'-cyclic phosphodiesterase 10A; experiment: Inhibition of PDE10A by fluorescence polarization assay
[9] = system: Rattus norvegicus; experiment: Antipsychotic activity in iv dosed rat assessed as inhibition of apomorphine-induced Stereotypy administered 1 hr prior to apomorphine challenge; format: functional
[10] = system: Rattus norvegicus; experiment: Antipsychotic activity in sc dosed Wiga rat assessed as inhibition of phencyclidine-induced hyperlocomotion administered 60 mins prior to phencyclidine challenge measured up to 30 mins; format: functional
[11] = system: Rattus norvegicus; experiment: Antipsychotic activity in sc dosed Wistar Wiga rat assessed as latency to avoid an electric shock measured up to 120 mins by conditioned avoidance responce test; format: functional; details: 2 h
[12] = system: Mus musculus; experiment: Antipsychotic activity in iv dosed NMRI mouse assessed as inhibition of SCH-23390-induced hypolocomotion administered 30 mins prior to SCH-23390 challenge measured up to 30 mins; format: functional
[13] = Selectivity ratio of IC50 for PDE1B1 to IC50 for rat recombinant PDE10A2
[14] = system: Rattus norvegicus; experiment: Antipsychotic activity in sc dosed rat prepulse inhibition model; format: functional
[15] = system: Rattus norvegicus; experiment: Antipsychotic activity in sc dosed rat assessed as decrease in amphetamine-induced spontaneous locomotor activity; format: functional
[16] = system: Rattus norvegicus; experiment: Antipsychotic activity in sc dosed rat assessed as decrease in phencyclidine-induced locomotor activity; format: functional
[17] = system: Rattus norvegicus; experiment: Antipsychotic activity in sc dosed rat assessed as decrease in spontaneous locomotor activity; format: functional
[18] = system: Rattus norvegicus; experiment: Antipsychotic activity in sc dosed rat by conditioned avoidance response test; format: functional
[19] = target: T1, cAMP and cAMP-inhibited cGMP 3',5'-cyclic phosphodiesterase 10A; experiment: Inhibition of human full length PDE10A using [3H]cGMP as substrate after 20 mins by scintillation proximity assay
[20] = target: T1, cAMP and cAMP-inhibited cGMP 3',5'-cyclic phosphodiesterase 10A; experiment: Inhibition of PDE10A at 0.1 uM relative to control

T1 sequence (Q9Y233 whole entry): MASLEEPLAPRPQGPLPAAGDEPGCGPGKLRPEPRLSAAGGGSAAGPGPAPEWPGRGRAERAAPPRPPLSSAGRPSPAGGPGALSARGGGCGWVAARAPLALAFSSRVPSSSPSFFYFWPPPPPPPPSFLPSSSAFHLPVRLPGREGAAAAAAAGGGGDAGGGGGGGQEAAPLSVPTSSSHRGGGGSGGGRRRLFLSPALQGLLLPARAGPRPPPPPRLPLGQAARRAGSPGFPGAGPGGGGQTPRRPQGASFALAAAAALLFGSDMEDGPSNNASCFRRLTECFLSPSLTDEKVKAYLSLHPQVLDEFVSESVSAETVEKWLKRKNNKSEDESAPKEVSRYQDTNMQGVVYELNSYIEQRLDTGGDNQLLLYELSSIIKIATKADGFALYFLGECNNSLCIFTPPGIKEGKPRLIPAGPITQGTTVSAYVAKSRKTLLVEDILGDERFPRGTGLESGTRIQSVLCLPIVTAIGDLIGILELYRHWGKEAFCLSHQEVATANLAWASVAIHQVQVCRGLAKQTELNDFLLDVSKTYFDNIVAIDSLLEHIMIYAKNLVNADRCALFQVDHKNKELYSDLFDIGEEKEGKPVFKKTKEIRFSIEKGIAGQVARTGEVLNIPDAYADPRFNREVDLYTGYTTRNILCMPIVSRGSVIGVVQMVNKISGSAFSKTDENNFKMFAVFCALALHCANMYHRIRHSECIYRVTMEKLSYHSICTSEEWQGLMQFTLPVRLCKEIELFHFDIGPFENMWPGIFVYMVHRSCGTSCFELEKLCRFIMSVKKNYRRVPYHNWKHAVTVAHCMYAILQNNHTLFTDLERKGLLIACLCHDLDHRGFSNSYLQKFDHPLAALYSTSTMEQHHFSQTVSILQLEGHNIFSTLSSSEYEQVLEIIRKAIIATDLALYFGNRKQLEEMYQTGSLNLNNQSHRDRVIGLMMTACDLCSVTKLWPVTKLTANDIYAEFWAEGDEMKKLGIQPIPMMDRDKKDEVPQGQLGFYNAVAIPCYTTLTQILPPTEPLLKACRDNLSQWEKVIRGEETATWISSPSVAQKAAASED

SMILES: Cc1cnc(C)n2nc(CCc3nc(-c4ccccc4)cn3C)nc12
inhibition in vivo at 5 mg/kg [2]: 96%

SMILES: COC(=O)c1ccc(CN2CC(c3ccc(OC)c4oc5ccccc5c34)CC2=O)c(F)c1 (racemic)
Ratio IC50 [3]: 116 | IC50 [4]: 39 nM

SMILES: Cc1ccc2c(=O)n(-c3ccc(O[11CH3])cc3)c(CCN3C(=O)c4cccc(OC(C)C)c4C3=O)nc2n1
Ki [8]: 0.1 nM

SMILES: COCCOc1ccc(-c2c(C)nc3c(-c4ccncc4)ccnn23)cn1
ED50 [9]: 1.5 mg/kg | ED50 [10]: 6.1 mg/kg | ED50 [11]: 5.4 mg/kg | ED50 [12]: 5 mg/kg | Ratio IC50 [13]: 200

SMILES: c1cnc2c(c1)CN(c1ncccc1-c1ccc(OCc3ccc4ccccc4n3)cc1)CC2
Ki [8]: < 1000 nM

SMILES: OCC1CCN(c2nccnc2OC2CN(c3ccc4ccccc4n3)C2)CC1
IC50 [7]: 2.3 nM

SMILES: CN1CCN(C2=Nc3cc(Cl)ccc3Nc3ccccc32)CC1 [CLOZAPINE]
ED50 [14]: 0.56 mg/kg | ED50 [15]: 0.87 mg/kg | ED50 [16]: 1.8 mg/kg | ED50 [17]: 1.63 mg/kg | ED50 [18]: 5 mg/kg

SMILES: Cc1nc2ccccc2nc1OCc1cc(OC2CCOCC2)nc(N2CCCC2)n1
IC50 [4]: 0.22 nM

SMILES: O=C(NCCc1nc2ccccc2[nH]1)c1cc(Br)cn2nc(C3CC3)nc12
IC50 [1]: < 10 nM

SMILES: Cc1ncc(C)n2nc(CCc3c[nH]c(-c4cccs4)n3)nc12
IC50 [4]: 0.34 nM

SMILES: OCC1CCN(c2cncc(OC3CN(c4ccc5ccccc5n4)C3)n2)CC1
IC50 [7]: 0.6 nM

SMILES: COc1ccc(C2CC(=O)N(Cc3ccc(-c4ccno4)cc3)C2)c2c1oc1ccccc12 (racemic)
Ratio IC50 [3]: 57 | IC50 [4]: 17 nM

SMILES: COCCc1ccc(-c2c(C)nc3c(N4CCOCC4)nccn23)cn1
ED50 [11]: 2 mg/kg

SMILES: COc1cccc2c1C(=O)N(CCc1nc3ccccc3c(=O)n1-c1ccc3cnn([11CH3])c3c1)C2=O
Ki [8]: 0.95 nM

SMILES: COc1ccc(C2=C(c3ccc(OCc4ccc5ccccc5n4)cc3)C(=O)N(C)C2)cc1
IC50 [6]: < 50 nM

SMILES: O=C1Cc2cc(CCN3CCN(c4nsc5ccccc45)CC3)c(Cl)cc2N1 [ZIPRASIDONE]
ED50 [14]: 1.78 mg/kg | ED50 [15]: 0.17 mg/kg | ED50 [16]: 0.2 mg/kg | ED50 [17]: 0.71 mg/kg | ED50 [18]: 0.52 mg/kg

SMILES: CCn1c(=O)n(-c2ccc(Nc3nc4ccc(F)cc4s3)cc2)c2ncccc21
inhibition [20]: 102%

SMILES: COc1cc(-c2ccc(C(=O)C(OC)c3ccc(-c4nnc(C)s4)cc3)o2)cc(OC)c1Br (stereo not drawn)
IC50 [1]: < 1000 nM

SMILES: O=C(Nc1ccccc1)N1CCc2nc(-c3cccnc3)nc(NCC3C=NC(c4ccccc4)=N3)c2C1 (stereo not drawn)
Ki [8]: 2.19 nM

SMILES: COc1ccc(-c2cc(N3CCn4ccnc4C3)nc(/C=C/c3nc(N(C)C)c4ccccc4n3)n2)cc1OC
IC50 [4]: 0.44 nM

SMILES: O=C(Cc1c(F)cccc1F)N(Cc1cccnc1)c1ccc(OCc2ccc3ccccc3n2)cc1
IC50 [1]: < 100 nM

SMILES: Cc1ccc(C)n2nc(CCc3nc(-c4ccccc4)cn3C)nc12
inhibition in vivo at 5 mg/kg [2]: 99%

SMILES: Cc1cc(-c2cccnc2O[C@H]2CC[C@H](Nc3nc4ccccc4s3)CC2)ccn1
IC50 [7]: 19.6 nM

SMILES: CCn1c(=O)n(-c2ccc(N3CCn4c3nc3ccccc34)cc2)c2ncccc21
inhibition [20]: 98%

SMILES: COc1cc(-c2ccc(C(=O)C(OC)c3ccc(-c4nnc(C)o4)cc3)o2)cc(OC)c1OC (stereo not drawn)
IC50 [1]: < 1000 nM

Second part, the molecule after the results:

IC50 [1]: < 10 nM
SMILES: CC(C)(C)c1nnc2c(C(=O)NCCCc3nc4ccccc4[nH]3)cc(-c3ccc(O)cc3)cn12

inhibition [5]: 98% | IC50 [4]: < 100 nM
SMILES: Clc1ccc(/C=C(/Cn2ncnn2)c2ccc(OCc3ccc4ccccc4n3)cc2)cc1

IC50 [6]: < 50 nM
SMILES: CC(C)(C)c1ccc(C2CC2C(=O)N/N=C/c2cccc3cnccc23)cc1 (stereo not drawn)

IC50 [7]: 7.8 nM
SMILES: Clc1cccnc1N1CC(c2nc3ccccc3[nH]2)C1

IC50 [1]: < 10 nM
SMILES: CC(C)(C)c1nnc2c(C(=O)NCCc3nc4ccccc4s3)cc(Br)cn12

IC50 [6]: < 50 nM
SMILES: CN(/N=C/c1cccc2cnccc12)C(=O)C1CC1c1ccc(C(C)(C)C)cc1 (stereo not drawn)

IC50 [19]: 6 nM
SMILES: O=C(Nc1ccn2cc(-c3ccccc3)nc2n1)c1nc(C2CC2)ccc1Nc1cncnc1

Ki [8]: < 1000 nM
SMILES: c1cc(-c2nc(OCc3ccncc3)c3ccncc3n2)cc(-c2ncco2)c1

Ki [8]: < 1000 nM
SMILES: c1cnc(N2CCOCC2)c(-c2ccc(OCc3ccc4ccccc4n3)cc2)c1

IC50 [6]: < 50 nM
SMILES: c1ccc(-c2ccc(OCc3ccc4ccccc4n3)cc2)c(-c2ccncc2)c1

IC50 [1]: < 1000 nM
SMILES: COc1cc(-c2csc(C(=O)C(OC)c3ccc(N4CCOCC4)cc3)n2)cc(OC)c1Br (stereo not drawn)

IC50 [1]: < 100 nM
SMILES: CN(C(=O)COc1ccc(-c2c(-c3ccc(Cl)cc3)nc3sccn23)cc1)c1ccccn1

Ki [8]: 0.1 nM
SMILES: COc1ccc(-n2c(CCN3C(=O)c4cccc(OC(C)C)c4C3=O)nc3nc(C)ccc3c2=O)cc1
